The structures appear in SMILES notation. pIC50: −log10 of the molar value. Several values for one entry are separate records, joined by “and”; a condition that tells them apart may be missing. Identical values can stand only once.

This assay deals with Nonstructural protein 3 (Zika virus, UniProt A0A024AXB9). Put plainly: Functional biochemical assay to identify treatments for viral infectious disease that targets Zika NS2B-NS3 protease. Utilizing a direct enzyme activity measurement method, reading the fluorescence intensity is used to characterize the relative potency of inhibitors as IC50. Details: species or system PRVABC59.
Sequence of Nonstructural protein 3 (A0A024AXB9 whole entry): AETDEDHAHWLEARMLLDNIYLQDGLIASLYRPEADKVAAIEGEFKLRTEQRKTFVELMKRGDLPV

One may read the pIC50 as −log10 of the IC50, conventionally taken in molar units. `Cn1nc([C@H](C#N)Nc2cccc([C@H]3CCOC3)c2)cc1C1CC1` showed a negative-log IC50 (pIC50) of less than 4.60.

In turn, `C=CC[C@H](Nc1cc([C@H]2CCOC2)ccn1)c1cc(C2CC2)n(C)n1` gave a negative logarithm of the IC50 (pIC50) of less than 4.60.

With `O=C(O)c1ccc(-c2cc(NC(=O)c3cc(F)cc4[nH]ncc34)cc3c2CNC3)cc1`, the pIC50 is 7.46 and 7.54.

Molecule `CO[C@H]1C[C@H](n2cc3c(C(=O)Nc4ccc5c(c4)CNC5)cc(Cl)cc3n2)C1` showed a pIC50 of 6.66.

Take `O=C(Nc1ccc2c(c1)CNC2)c1cc(F)cc(-c2cn[nH]c2)c1`: the negative-log IC50 (pIC50) is 7.47 and 7.64.

`O=C(Nc1ccc2c(c1)CNC2)c1cc(F)cc(-c2ccnc3c2CCO3)c1` showed a negative-log IC50 (pIC50) of 5.92.

`COc1ccc(OC)c([C@H]2CCCN2C(=O)Nc2ccc3c(c2)CNC3)c1` gave a negative logarithm of the IC50 (pIC50) of less than 4.60.

For `Fc1cc(CNc2ccc3c(n2)CNC3)c2cn[nH]c2c1`, the pIC50 is less than 4.60.

`Cc1c(C(=O)Nc2ccc3c(c2)CCS3(=O)=O)cc(C2CC2)n1C` gave a pIC50 of less than 4.60.

In turn, `COC[C@]1(c2nc3c(C(=O)Nc4ccc5c(c4)CNC5)cc(F)cc3[nH]2)CCOC1` had a negative-log IC50 (pIC50) of 6.46.

The molecule `CC(=O)N1CCCc2cc(NC(=O)c3cc(C4CC4)n(C)c3C)ccc21` gave a pIC50 of less than 4.60.

Molecule `N#Cc1c[nH]c2ccc(C(=O)Nc3ccc4c(c3)CNC4)cc12` had a pIC50 of 6.31.

Turning to `O=C(Nc1ccc2c(c1)CNC2)c1cc(F)cc(C2=CCCOC2)c1`, the pIC50 is 6.53.

Molecule `Cc1c(C(=O)Nc2cc(-c3cccnc3)ccn2)cnn1C1CC1` showed a negative logarithm of the IC50 (pIC50) of less than 4.60.

Consider `CNC(=O)[C@H](Nc1ccc2c(c1)CNC2)c1cc(Cl)cc2[nH]c(-c3ccccc3)nc12`, for which the pIC50 was 7.54 and 7.89.

`CC(C)Cn1cc2c(C(=O)Nc3ccc4c(c3)CNC4)cc(Cl)cc2n1` gave a pIC50 of 6.57.

Consider `O=C(Nc1ccc2c(c1)CNC2)c1cc(Cl)cc2nn(C3CCOCC3)cc12`, for which the pIC50 is 6.88.

Turning to `O=C(NCCCF)[C@H](Nc1ccc2c(c1)CNC2)c1cc(Cl)cc(C2CC2)c1`, the negative-log IC50 (pIC50) is 7.23 and 7.48.

Turning to `O=C(Nc1ccc2c(c1)CNC2)c1cc(F)cc(-c2ccc3c(=O)[nH]ncc3c2)c1`, the pIC50 was 6.34 and 6.53.

For `CC(C)c1nn(C)cc1-c1cc(F)cc(C(=O)Nc2ccc3c(c2)CNC3)c1`, the pIC50 is 6.20.

Consider `O=C(Nc1ccc2c(c1)CNC2)c1ccc2ncsc2n1`, for which the pIC50 is 4.63.

`COc1cc(C(=O)Nc2ccc3c(c2)CNC3)cc2ccoc12`: the negative-log IC50 (pIC50) is 6.04.

`NC[C@H]1OCCc2sc(C(=O)Nc3cc(-c4cccnc4)ccn3)cc21` showed a pIC50 of less than 4.60.

Turning to `CN(C)c1nc(-c2cc(F)cc(C(=O)Nc3ccc4c(c3)CNC4)c2)cs1`, the pIC50 is 6.84.

For `O=C(Nc1cc([C@H]2CCOC2)ccn1)c1cc(F)cc2[nH]ncc12`, the pIC50 was less than 4.60.

Consider `CC(C)n1cc(C(=O)Nc2cc(-c3cccnc3)ccn2)cn1`, for which the negative logarithm of the IC50 (pIC50) is less than 4.60.

The molecule `O=C(Nc1ccc2c(c1)CNC2)c1cc(Cl)cc2nn(C3COC3)cc12` showed a negative-log IC50 (pIC50) of 6.27.

`Nc1n[nH]c2cc(C(=O)Nc3ccc4c(c3)CNC4)ccc12` had a pIC50 of less than 4.60.

With `CCCn1cc2c(C(=O)Nc3ccc4c(c3)CNC4)cc(Cl)cc2n1`, the pIC50 is 7.17 and 7.44.

For the molecule `O=C(Nc1cc([C@H]2CCOC2)ccn1)c1ccc2scnc2c1`, the negative logarithm of the IC50 (pIC50) was less than 4.60.

`CC(C)NC(=O)[C@H](Nc1ccc2c(c1)CN(C)C2(C)C)c1cc(Cl)cc2[nH]ncc12`: the negative logarithm of the IC50 (pIC50) was 5.42.

For `O=C(NCCOCC1CC1)[C@H](Nc1ccc2c(c1)CNC2)c1cc(Cl)cc(C2CC2)c1`, the pIC50 is 7.10 and 7.30.

On to `O=C(Nc1ccc2c(c1)CN[C@H]2c1ccccc1)c1cc(F)cc2[nH]ncc12`, for which the negative-log IC50 (pIC50) was 5.72.

On to `O=C1CCc2c(cccc2C(=O)Nc2ccc3c(c2)CNC3)N1`, for which the pIC50 is 6.02.

As for `CCCCNC(=O)[C@H](Nc1ccc2c(c1)CNC2)c1cc(Cl)cc(C2CC2)c1`, the pIC50 is 7.24 and 7.52.

`Cc1c(C(=O)Nc2cc(-c3cccnc3)ccn2)cc(C#N)n1C` had a pIC50 of less than 4.60.

The molecule `O=S(=O)(Nc1ccc2c(c1)CNC2)c1cccc2[nH]ncc12` gave a pIC50 of less than 4.60.

With `O=C(NCC(F)F)[C@H](Nc1ccc2c(c1)CNC2)c1cc(Br)cc2[nH]ccc12`, the negative-log IC50 (pIC50) is 7.11 and 7.36.

In turn, `O=C(Nc1ccc2c(c1)CNC2)c1cccc2c1[C@]1(CCNC1)C(=O)N2` showed a pIC50 of 6.95.

Turning to `Cc1ncc(-c2cc(F)cc(C(=O)Nc3ccc4c(c3)CNC4)c2)s1`, the negative-log IC50 (pIC50) was 7.15 and 7.28.

Turning to `CO[C@H](C)Cn1cc2c(C(=O)Nc3ccc4c(c3)CNC4)cc(Cl)cc2n1`, the pIC50 is 6.44.

In the case of `CC1=C(c2cc(F)cc(C(=O)Nc3ccc4c(c3)CNC4)c2)CCCC1`, the pIC50 was less than 4.60.

Regarding `O=C(Nc1ccc2c(c1)CNC2)c1cc(F)cc(-c2c[nH]c(=O)c(F)c2)c1`, the negative logarithm of the IC50 (pIC50) was 7.14 and 7.37.

In the case of `C=Cc1cc2c(cc1NC(=O)c1cc(F)cc3[nH]ncc13)CNC2`, the negative logarithm of the IC50 (pIC50) was 7.35 and 7.55.

As for `COc1cc(C(=O)Nc2ccc3c(c2)CNC3)cc2cnn(C)c12`, the pIC50 is less than 4.60.

`O=C(Nc1cc(-c2cccnc2)ccn1)c1nc(Br)n2c1CNCC2`: the pIC50 is less than 4.60.

The IC50 is the concentration that gives 50% inhibition. High values mean weaker potency in that assay, low ones greater potency in that assay. In the case of `O=C(Nc1ccc2c(c1)CNC2)c1cc(F)cc2[nH]c(-c3ccccc3F)nc12`, the IC50 was 23 nM (2×) and 13 nM.

Turning to `O=C(Nc1cc([C@H]2CCOC2)ccn1)c1cc(Cl)cc2[nH]ncc12`, the pIC50 was less than 4.60.

`Cc1nn(C)c(C)c1[C@H]1CCCN1C(=O)Nc1ccc2c(c1)CNC2`: the pIC50 was less than 4.60.

Molecule `CC(C)NC(=O)[C@H](Nc1ccc2c(c1)CNC2)c1cccc2cn[nH]c12` gave a negative-log IC50 (pIC50) of 4.96.

For `O=C(Nc1cc2c(cc1C1CC1)CNC2)c1cc(F)cc2[nH]ncc12`, the negative-log IC50 (pIC50) is 7.04 and 7.34.

Turning to `C#C[C@H](Nc1cc([C@H]2CCOC2)ccn1)c1cc(C2CC2)n(C)n1`, the pIC50 was less than 4.60.

The molecule `CC(C)NC(=O)[C@H](Nc1ccc2c(c1)CN(CC(F)F)C2)c1cc(Cl)cc2[nH]ncc12` showed a pIC50 of less than 4.60.

Turning to `O=C(Nc1ccc2c(c1)CNC2)c1cc(F)cc(/C=C/c2ccccc2)c1`, the pIC50 was 6.78.

As for `O=C(NCC(F)F)[C@H](Nc1ccc2c(c1)CNC2)c1cc(Cl)cc2[nH]ncc12`, the pIC50 was 6.54.

Turning to `Cn1ncc2c(C(=O)Nc3ccc4c(c3)CNC4)cc(Cl)cc21`, the pIC50 is 7.33 and 7.57.

Regarding `O=C(Nc1cc(-c2cccnc2)ccn1)c1cc2n(c1)CCC2`, the pIC50 was less than 4.60.

As for `O=C(Nc1ccc2c(c1)CN[C@H]2CCO)c1cc(F)cc2[nH]ncc12`, the pIC50 was 6.94.

Regarding `CCc1cccc(-c2nc3c(C(=O)Nc4ccc5c(c4)CNC5)cc(F)cc3[nH]2)c1`, the IC50 was 53 nM (2×) and 32 nM.

Molecule `Cc1cnccc1-c1cc(NC(=O)c2cc(F)cc3[nH]ncc23)cc2c1CNC2` had a pIC50 of 6.94.

`O=C(Nc1cc([C@H]2CCOC2)ccn1)c1cc(Br)cc2[nH]ccc12` had a negative-log IC50 (pIC50) of less than 4.60.

On to `O=C(O)CCCc1cc(NC(=O)c2cc(F)cc3[nH]ncc23)cc2c1CNC2`, for which the negative-log IC50 (pIC50) was 7.21 and 7.42.

In turn, `Cc1c(C(=O)Nc2cc(-c3cccnc3)ccn2)c2ccccc2n1C` showed a pIC50 of less than 4.60.

`O=C(Nc1ccc2c(c1)CNC2)c1cc(Cl)cc2nn(C3CCC3)cc12` had a pIC50 of 6.75.

In turn, `O=C(Nc1ccc2c(c1)CNC2)c1cc(F)c2[nH]nnc2c1` had a pIC50 of less than 4.60.

Regarding `Cc1cc(-c2cc(F)cc(C(=O)Nc3ccc4c(c3)CNC4)c2)[nH]n1`, the pIC50 is 7.05 and 7.26.

With `O=C(Nc1ccc2c(c1)CNC2)c1cc(Cl)cc2c1cnn2C1CCOCC1`, the negative logarithm of the IC50 (pIC50) is 7.24 and 7.48.

In the case of `Cc1c(C(=O)Nc2cccc(-c3cncnc3O)c2)cc(C2CC2)n1C`, the pIC50 is less than 4.60.

`Cn1cc2c(C(=O)Nc3ccc4c(c3)CNC4)cc(Cl)cc2n1` showed a negative-log IC50 (pIC50) of 6.80.

Regarding `O=C(Nc1cc([C@H]2CCOC2)ccn1)c1cc(F)c2[nH]ccc2c1`, the pIC50 was less than 4.60.

Consider `CSCCNC(=O)[C@H](Nc1ccc2c(c1)CNC2)c1cc(Cl)cc(C2CC2)c1`, for which the pIC50 was 7.21 and 7.31.

`CS(=O)(=O)N1CC[C@]2(C1)C(=O)Nc1cccc(C(=O)Nc3ccc4c(c3)CNC4)c12` showed a pIC50 of 6.43.

In turn, `COc1ccc([C@H]2C[C@H](C)CN2C(=O)Nc2ccc3c(c2)CNC3)cc1` showed a pIC50 of less than 4.60.

As for `Cc1c(C(=O)Nc2cc(-c3cccnc3)ccn2)cc(CC(C)(C)C)n1C`, the negative logarithm of the IC50 (pIC50) is less than 4.60.

Regarding `CSCCCNC(=O)[C@H](Nc1ccc2c(c1)CNC2)c1cc(Cl)cc(C2CC2)c1`, the pIC50 was 6.90.

As to `O=C(Nc1cc(-c2cccnc2)ccn1)c1cnn2c1CCCC2`, the pIC50 was 5.10.

Turning to `CC(C)(C)c1noc2nc(C(=O)Nc3ccc4c(c3)CNC4)ccc12`, the negative logarithm of the IC50 (pIC50) is less than 4.60.

Regarding `O=C(Nc1ccc2c(c1)CNC2)c1cc(F)cc2nn(-c3ccccn3)nc12`, the pIC50 is 6.95 and 6.89.

For the molecule `CC(C)(c1nc2c(C(=O)Nc3ccc4c(c3)CNC4)cc(F)cc2[nH]1)S(C)(=O)=O`, the pIC50 was 6.39 and 6.58.

Consider `O=C(Nc1cc(-c2cccnc2)ccn1)c1c[nH]c2ncccc12`, for which the pIC50 was less than 4.60.

Take `COCCCNC(=O)[C@H](Nc1ccc2c(c1)CNC2)c1cc(Cl)cc(C2CC2)c1`: the pIC50 is 7.06 and 7.15.

`NCCc1csc2cc(C(=O)Nc3ccc4c(c3)CNC4)ccc12`: the pIC50 is 6.84.

As for `O=C(Nc1ccc2c(c1)CN[C@H]2C[C@H](O)CO)c1cc(Cl)cc2[nH]ncc12`, the negative logarithm of the IC50 (pIC50) is 6.70.

In turn, `O=C(Nc1ccc2c(c1)CNC2)c1cc(F)c2[nH]c(=O)[nH]c2c1` had a negative logarithm of the IC50 (pIC50) of 6.37.

`Cn1c(=O)[nH]c2cc(C(=O)Nc3ccc4c(c3)CNC4)cc(Br)c21` gave a pIC50 of 5.16.

Molecule `O=C(Nc1ccc2c(c1)CNC2)c1ccc2c(Br)csc2c1` showed a negative logarithm of the IC50 (pIC50) of 5.66.

The molecule `C=C[C@H]1NCc2cc(NC(=O)c3cc(F)cc4[nH]ncc34)ccc21` showed a negative-log IC50 (pIC50) of 6.44.

In turn, `O=C(Nc1cc(-c2cccnc2)ccn1)c1cc(C2CC2)oc1C1CC1` had a negative logarithm of the IC50 (pIC50) of less than 4.60.

With `O=C(Nc1cc2c(c(C3=CCS(=O)(=O)CC3)c1)CNC2)c1cc(F)cc2[nH]ncc12`, the pIC50 was 7.42 and 7.52 and 7.59.

Turning to `O=C(Nc1cc2c(c(-c3ccnnc3)c1)CNC2)c1cc(Cl)cc2[nH]ncc12`, the pIC50 was 7.21 and 7.46.

For `Clc1ccc2[nH]ncc2c1[C@@H]1C[C@H]1c1ccc2c(c1)CNC2`, the pIC50 is 4.65.

Turning to `O=C(Nc1ccc2c(c1)CNC2)c1cc(F)cc(-c2ccncc2)c1`, the negative logarithm of the IC50 (pIC50) was 6.67.

`Cc1cc(C(=O)Nc2cc(-c3cccnc3)ccn2)nn1CCN` gave a negative-log IC50 (pIC50) of less than 4.60.

For the origin of these results see ChEMBL document CHEMBL5604062, “ASAP - ZIKV NS2B-NS3 protease fluorescence dose response” (2024).
